According to patent publication US20090137396A1, “Piperazine Compounds with a Herbicidal Action” (BASF SE, priority 2006, published 2009):

Test system: Amaranthus retroflexus (AMARE)
Test: greenhouse experiment, pre-emergence treatment, AMARE
Type: in vivo
Details: pre-emergence method, application rate 1 kg/ha; scale from 0 to 100
Excerpt: (§1) The seeds of the test plants were sown separately for each species. For the pre-emergence treatment, the active ingredients, which had been suspended or emulsified in water, were applied directly after sowing by means of finely distributing nozzles. The containers were irrigated gently to promote germination and growth and subsequently covered with transparent plastic hoods until the plants had rooted. This cover causes uniform germination of the test plants, unless this has been impaired by the active ingredients. Depending on the species, the plants were kept at 10-25° C. or 20-35° C. The test period extended over 2 to 4 weeks. During this time, the plants were tended, and their response to the individual treatments was evaluated. Evaluation was carried out using a scale from 0 to 100. 100 means no emergence of the plants, or complete destruction of at least the aerial moieties, and 0 means no damage, or normal course of growth. Good herbicidal activity is given for values of at least 70 and very good herbicidal activity is given for values of at least 85. The plants used in the greenhouse experiments belonged to the following species: [table]

Compound	herbicidal activity against AMARE
CN1C(=O)C(Cc2ccccc2)N(C(=O)c2ccccc2)C(=O)C1=Cc1ccccc1C#N (stereo not shown) [Example 137]	good (Good herbicidal activity is given for values of at least 70)

Test system: Avena fatua (AVEFA)
Test: greenhouse experiment, pre-emergence treatment, AVEFA
Type: in vivo
Details: pre-emergence method, application rate 1 kg/ha; scale from 0 to 100
Excerpt: as §1

Compound	herbicidal activity against AVEFA
CN1C(=O)C(Cc2ccccc2)N(C)C(=O)C1=Cc1cnccc1I (stereo not shown) [Example 206]	good (Good herbicidal activity is given for values of at least 70)

Test system: Lulium perenne (LOLMU)
Test: greenhouse experiment, post-emergence treatment, LOLMU
Type: in vivo
Details: post-emergence method, application rate 1 kg/ha; scale from 0 to 100
Excerpt: (§2) The seeds of the test plants were sown separately for each species. For the post-emergence treatment, the test plants were first grown to a height of 3 to 15 cm, depending on the plant habit, and only then treated with the active ingredients which had been suspended or emulsified in water. For this purpose, the test plants were either sown directly and grown in the same containers, or they were first grown separately as seedlings and transplanted into the test containers a few days prior to treatment. Depending on the species, the plants were kept at 10-25° C. or 20-35° C. The test period extended over 2 to 4 weeks. During this time, the plants were tended, and their response to the individual treatments was evaluated. Evaluation was carried out using a scale from 0 to 100. 100 means no emergence of the plants, or complete destruction of at least the aerial moieties, and 0 means no damage, or normal course of growth. Good herbicidal activity is given for values of at least 70 and very good herbicidal activity is given for values of at least 85. The plants used in the greenhouse experiments belonged to the following species: [table]

Compound	herbicidal activity against LOLMU
CN1C(=O)[C@H](Cc2ccccc2)N(C)C(=O)C1=Cc1ccccc1[N+](=O)[O-] (stereo in doubt) [Example 1, 3-Benzyl-1,4-dimethyl-6-(2-nitrobenzylidene)piperazine-2,5-dione]	very good (very good herbicidal activity is given for values of at least 85)

Test system: Abutilon theophrasti (ABUTH)
Test: greenhouse experiment, pre-emergence treatment, ABUTH
Type: in vivo
Details: pre-emergence method, application rate 3 kg/ha; scale from 0 to 100
Excerpt: as §1

Compound	herbicidal activity against ABUTH
COC(=O)c1ccccc1C=C1C(=O)N(C)C(Cc2ccccc2)C(=O)N1C (stereo not shown) [Example 73]	good (Good herbicidal activity is given for values of at least 70)

Test system: not given
Test: not given
Details: not given

melting point	Compound
159 °C	CN1C(=O)C(Cc2ccccc2)N(C)C(=O)C1=Cc1c[nH]c2cccc([N+](=O)[O-])c12 (stereo not shown) [184]
238 °C	CN1C(=O)C(Cc2ccccc2)N(C)C(=O)C1=Cc1c[nH]c2cccc([N+](=O)[O-])c12 (stereo not shown) [185]
175 °C	CN1C(=O)C(Cc2ccccc2)N(C)C(=O)C1=Cc1c(C#N)ccc(F)c1F (stereo not shown) [Example 115, 3-Benzyl-1,4-dimethyl-6-(2-cyano-5,6-difluorobenzylidene)piperazine-2,5-dione]
180 °C	CN1C(=O)C(Cc2ccccc2)N(C)C(=O)C1=Cc1ccncc1[N+](=O)[O-] (stereo not shown) [Example 196]
175 °C	CN1C(=O)C(Cc2ccccc2)N(C)C(=O)C1=Cc1ccncc1[N+](=O)[O-] (stereo not shown) [Example 197]
165 °C	CN1C(=O)C(Cc2ccccc2)N(C)C(=O)C1=Cc1ncccc1[N+](=O)[O-] (stereo not shown) [Example 198]
236 °C	CN1C(=O)C(Cc2ccccc2)N(C)C(=O)C1=Cc1c[nH]c2cccc(Br)c12 (stereo not shown) [Example 199]
218 °C	CN1C(=O)C(Cc2ccccc2)N(C)C(=O)C1=Cc1cccnc1C#N (stereo not shown) [Example 205]

Test system: test plants
Test: greenhouse experiment, post-emergence treatment, species not stated
Type: in vivo
Details: post-emergence method; scale from 0 to 100
Excerpt: as §2

Compound	herbicidal activity
Cc1cccc([N+](=O)[O-])c1C=C1C(=O)N(C)C(Cc2ccccc2)C(=O)N1C (single isomer, unassigned) [Example 13]	good to very good
CN1C(=O)C(Cc2ccccc2)N(C)C(=O)C1=Cc1cc2c(cc1[N+](=O)[O-])OCO2 (single isomer, unassigned) [Example 16]	good to very good
CN1C(=O)C(Cc2ccccc2)N(C)C(=O)C1=Cc1ccccc1-c1nccs1 (single isomer, unassigned) [Example 44]	good to very good
CN1C(=O)C(Cc2ccccc2)N(C)C(=O)C1=Cc1ccccc1-c1ccco1 (single isomer, unassigned) [Example 47]	good to very good
CN1C(=O)C(Cc2ccccc2)N(C)C(=O)C1=Cc1ccccc1-c1ccco1 (single isomer, unassigned) [Example 48]	good to very good
Cc1coc(-c2ccccc2C=C2C(=O)N(C)C(Cc3ccccc3)C(=O)N2C)n1 (single isomer, unassigned) [Example 52]	good to very good
C=Cc1ccccc1C=C1C(=O)N(C)C(Cc2ccccc2)C(=O)N1C (single isomer, unassigned) [Example 129]	good to very good
CN1C(=O)[C@H](Cc2ccccc2)N(C)C(=O)C1=Cc1ccccc1[N+](=O)[O-] (stereo in doubt) [Example 1, 3-Benzyl-1,4-dimethyl-6-(2-nitrobenzylidene)piperazine-2,5-dione]	good to very good
CN1C(=O)C(Cc2ccccc2)N(C)C(=O)C1=Cc1ccccc1-c1cccs1 (stereo not shown) [Example 49]	good to very good
CN1C(=O)C(Cc2ccccc2)N(C)C(=O)C1=Cc1ccccc1-c1cccnc1 (stereo not shown) [Example 51]	good to very good
CN1C(=O)C(Cc2ccccc2)N(C)C(=O)C1=C(Br)c1ccccc1C#N (stereo not shown) [Example 160]	good to very good
CCN1C(=O)C(Cc2ccccc2)N(CC)C(=O)C1=Cc1ccccc1Br (stereo not shown) [Example 170]	good to very good

Test system: SETIT
Test: greenhouse experiment, pre-emergence treatment, SETIT
Type: in vivo
Details: pre-emergence method, application rate 3 kg/ha; scale from 0 to 100
Excerpt: as §1

Compound	herbicidal activity against SETIT
CN1C(=O)C(Cc2cccs2)N(C)C(=O)C1=Cc1ccccc1I (stereo not shown) [Example 214]	good (Good herbicidal activity is given for values of at least 70)

Test system: test plants
Test: greenhouse experiment, pre-emergence treatment, species not stated
Type: in vivo
Details: pre-emergence method; scale from 0 to 100
Excerpt: as §1

Compound	herbicidal activity
CN1C(=O)C(Cc2ccccc2)N(C)C(=O)C1=Cc1ccccc1-c1ncco1 (single isomer, unassigned) [Example 45]	good to very good
CN1C(=O)C(Cc2ccccc2)N(C)C(=O)C1=Cc1ccccc1-c1ncccn1 (single isomer, unassigned) [Example 100]	good to very good
CN1C(=O)C(Cc2ccccc2)N(C)C(=O)C1=Cc1ccccc1-c1ncccn1 (single isomer, unassigned) [Example 101]	good to very good
CN1C(=O)C(Cc2ccccc2)N(C)C(=O)C1=Cc1ccccc1-c1cnccn1 (single isomer, unassigned) [Example 109]	good to very good
CN1C(=O)C(Cc2ccccc2)N(C)C(=O)C1=Cc1ccccc1-c1cnccn1 (single isomer, unassigned) [Example 110]	good to very good
Cc1cc(-c2ccccc2C=C2C(=O)N(C)C(Cc3ccccc3)C(=O)N2C)on1 (single isomer, unassigned) [Example 147]	good to very good
Cc1cc(-c2ccccc2C=C2C(=O)N(C)C(Cc3ccccc3)C(=O)N2C)on1 (single isomer, unassigned) [Example 148]	good to very good
CN1C(=O)C(Cc2ccccc2)N(C)C(=O)C1=Cc1c(F)cccc1I (stereo not shown) [Example 38]	good to very good
CN1C(=O)C(Cc2ccccc2)N(C)C(=O)C1=Cc1c(Cl)cccc1I (stereo not shown) [Example 40]	good to very good
CN1C(=O)C(Cc2ccccc2)N(C)C(=O)C1=Cc1ccccc1C(F)(F)F (stereo not shown) [Example 54]	good to very good
CN1C(=O)C(Cc2ccccc2)N(C)C(=O)C1=Cc1cc(F)ccc1Br (stereo not shown) [Example 62]	good to very good
COC(=O)c1ccccc1C=C1C(=O)N(C)C(Cc2ccccc2)C(=O)N1C (stereo not shown) [Example 73]	good to very good
CN1C(=O)C(Cc2ccccc2)N(C)C(=O)C1=Cc1c(Br)ccc(F)c1F (stereo not shown) [Example 119, 3-benzyl-1,4-dimethyl-6-(2-bromo-5,6-difluorobenzylidene)piperazine-2,5-dione]	good to very good
CN1C(=O)C(Cc2ccccc2)N(C)C(=O)C1=Cc1ccccc1-c1cncnc1 (stereo not shown) [Example 124]	good to very good
CN1C(=O)C(Cc2ccccc2)N(C(=O)c2ccccc2)C(=O)C1=Cc1ccccc1C#N (stereo not shown) [Example 137]	good to very good
CC(=O)N1C(=O)C(=Cc2ccccc2C#N)N(C)C(=O)C1Cc1ccccc1 (stereo not shown) [Example 140]	good to very good
CN1C(=O)C(Cc2ccccc2)N(C)C(=O)C1=Cc1ccsc1[N+](=O)[O-] (stereo not shown) [Example 191]	good to very good
CN1C(=O)C(Cc2ccccc2)N(C)C(=O)C1=Cc1ncccc1[N+](=O)[O-] (stereo not shown) [Example 198]	good to very good
CN1C(=O)C(Cc2ccccc2)N(C)C(=O)C1=Cc1cccnc1Br (stereo not shown) [Example 204]	good to very good
CN1C(=O)C(Cc2ccccc2)N(C)C(=O)C1=Cc1cnccc1I (stereo not shown) [Example 206]	good to very good
CN1C(=O)C(Cc2cccs2)N(C)C(=O)C1=Cc1ccccc1I (stereo not shown) [Example 214]	good to very good
